Like-named read-outs stand apart in the source and are kept apart here.
How the values were obtained:
[1] = test system: HCV GT 3a (strain S52) subgenomic replicon; assay: microbe, parasite or virus in culture; assay type: cell-based, hepatitis C virus; conditions: Hepatitis C virus, GT3A, 72 h, luciferase, mean ± SD, read-out: Huh7.5-3a(S52) (HCV Replicon 3a) EC50
[2] = test system: HCV GT 4a (strain ED43) subgenomic replicon; assay: microbe, parasite or virus in culture; assay type: cell-based, hepatitis C virus; conditions: for EC50: 72 h, luciferase, mean ± SD, read-out: Huh7.5-4a(ED43) (HCV Replicon 4a) EC50
[3] = test system: YFV (strain 17D) subgenomic replicon; assay: microbe, parasite or virus in culture; assay type: cell-based, yellow fever virus; conditions: Yellow fever virus, 72 h, read-out: Huh7-YF (YFV Replicon 17D) EC50
[4] = test system: DENV serotype 2 (strain 16681) subgenomic replicon; assay: microbe, parasite or virus in culture; assay type: cell-based, dengue virus; conditions: Dengue virus, DENV2; 72 h; luciferase; mean ± SD; read-out: Huh7-D2 (DENV-2 Replicon) EC50
HCV GT 1b (Con1) = assay: Combinatory activity of 34 with daclatasvir (DCV) in Huh5-2 replicon cells, F-Luc activity; assay type: cell-based, hepatitis C virus
Experimental: The Huh5-2 replicon cell line was treated with compound 34 in the presence or absence of daclatasvir (DCV) to test its effectiveness in combination with an authorized NS5A inhibitor (DCV) (Figure 6).
Figure 6 Combinatory activity of 34 with DCV against HCV GT 1b (Con1). Huh5-2 cells were treated or not with the analog in the presence or absence of 20 pM DCV. F-Luc activity was measured and calculated as relative light units (RLU) per μg of total protein. […] CDI: coefficient of drug interaction. […] Error bars represent standard deviation (SD). TEXT PRINTED IN THE PICTURE: DCV + 34: CDI: 1.09 (1μM); CDI: 0.91 (2μM)

[5] = test system: bloodstream form T. b. brucei (strain 221); conditions: for SI (CC50 for L6 cells / EC50 for T. brucei): selectivity index; for increase in activity against T. brucei relative to parent compound: 38, 40, 41 versus parent 36, 42 versus parent 37
[6] = test system: bloodstream form T. b. brucei (strain 221); assay: microbe, parasite or virus in culture; conditions: Trypanosoma brucei, mean of triplicate experiments ± SEM; for EC50: read-out: T. brucei EC50, cultured bloodstream form; for EC90: read-out: T. brucei EC90, cultured bloodstream form
[7] = test system: T. cruzi (CL Brener strain) epimastigotes; assay: microbe, parasite or virus in culture; conditions: Trypanosoma cruzi; for EC50: read-out: T. cruzi EC50; for EC90: read-out: T. cruzi EC90
[8] = Cytotoxicity against cultured L6 cells (resazurin); conditions: rat, L6 rat skeletal myoblast cells, L6 Cells CC50, mean of triplicate experiments ± SEM
[9] = test system: rat skeletal myoblast L6 cells; assay: Cytotoxicity against cultured L6 cells (resazurin); conditions: read-out: L6 Cells CC50; mean of triplicate experiments ± SEM
[10] = test system: HCV GT1b (Con1) replicon RNA; conditions: Hepatitis C virus, Huh-5-2, read-out: HCV RNA EC50
[11] = Cytotoxicity in Huh5-2 replicon cells (intracellular ATP levels); conditions: human
[12] = test system: T. cruzi (CL Brener strain) epimastigotes; conditions: selectivity index

CC1CCC2(NC(=O)N(CC(=O)NO)C2=O)c2ccccc21 [Compound 34, Ν-(hydroxy)-2-((4R,4′S)/(4S,4′R)-4′-methyl-2,5-dioxo-3′,4′-dihydro-2′H-spiro[imidazolidine-4,1′-naphthalene]-1-yl)acetamide]
EC50 [1]: 0.63 ± 0.08 µM
fold more active against GT 4a than lead molecule V [2]: 2.5 fold
EC50 [2]: 0.14 ± 0.01 µM
EC50 [3]: > 10 µM
EC50 [4]: > 10 µM
CDI (HCV GT 1b (Con1); 1 μM 34 with 20 pM DCV): 1.09
CDI (HCV GT 1b (Con1); 2 μM 34 with 20 pM DCV): 0.91
coefficient of drug interaction (CDI) (HCV GT 1b (Con1); 34 in combination with daclatasvir (DCV)): ≈ 1
SI (CC50 for L6 cells / EC50 for T. brucei) [5]: 335
EC50 [6]: 0.67 ± 0.09 µM
EC90 [6]: 0.92 ± 0.23 µM
EC50 [7]: > 30 µM
CC50 at 6 days [8]: > 200 µM
CC50 [9]: 224 ± 20 µM
EC50 [10]: 0.726 µM
CC50 at 72 h [11]: > 200 µM

O=C(CN1C(=O)NC2(CCC(c3ccccc3)CC2)C1=O)NO (stereo not drawn) [Compound 36, N-Hydroxy-2-(2,4-dioxo-8-phenyl-1,3-diazaspiro [4.5]decan-3-yl) acetamide]
EC50 [1]: 0.75 ± 0.13 µM
EC50 ([2]; Hepatitis C virus, GT4A): 0.39 ± 0.01 µM
EC50 [3]: > 10 µM
EC50 [4]: 4.64 ± 0.11 µM
SI (CC50 for L6 cells / EC50 for T. brucei) [5]: 70
EC50 [6]: 0.88 ± 0.1 µM
EC90 [6]: 1.18 ± 0.04 µM
EC50 [7]: > 30 µM
CC50 at 6 days [8]: 60.8 ± 8.2 µM
CC50 at 72 h [11]: 75.4 ± 8.46 µM

O=C(CN1C(=O)NC2(CCCCC2c2ccccc2)C1=O)NO (stereo not drawn) [Compound 37, N-Hydroxy-2-(2,4-dioxo-6-phenyl-1,3-diazaspiro [4.5]decan-3-yl) acetamide]
EC50 [1]: > 10 µM
EC50 ([2]; Hepatitis C virus, GT4A): > 10 µM
EC50 [3]: > 10 µM
EC50 [4]: > 10 µM
T. brucei EC50 fold higher than that of 36 ([5]; 2-phenyl versus 4-phenyl cyclohexane ring): 5 fold
SI (CC50 for L6 cells / EC50 for T. brucei) [5]: 55
EC50 [6]: 4.41 ± 0.22 µM
EC90 [6]: 5.92 ± 0.09 µM
EC50 [7]: > 30 µM
CC50 at 6 days [8]: > 200 µM
CC50 [9]: 246 ± 3 µM
CC50 at 72 h [11]: > 10 µM

CN1C(=O)N(CC(=O)NO)C(=O)C12CCC(c1ccccc1)CC2 (stereo not drawn) [Compound 38, N-Hydroxy-2-(1-methyl-2,4-dioxo-8-phenyl-1,3-diazaspiro [4.5]decan-3-yl)acetamide]
EC50 [1]: 0.63 ± 0.01 µM
EC50 ([2]; Hepatitis C virus, GT4A): 0.22 µM
EC50 [3]: > 10 µM
EC50 [4]: 10.2 ± 0.18 µM
increase in activity against T. brucei relative to parent compound [5]: 9 fold
SI (CC50 for L6 cells / EC50 for T. brucei) [5]: 220
SI (CC50 for L6 cells / EC50 for T. cruzi) [12]: 4
EC50 [6]: 0.1 ± 0.01 µM
EC90 [6]: 0.14 ± 0.01 µM
EC50 [7]: 6.25 ± 0.24 µM
EC90 [7]: 13.3 ± 0.3 µM
CC50 at 6 days [8]: 21.7 ± 3.9 µM
CC50 at 72 h [11]: 43.1 ± 2.11 µM

CN1C(=O)N(CC(=O)NO)C(=O)C12CCCCC2c1ccccc1 (stereo not drawn) [Compound 39, N-Hydroxy-2-(1-methyl-2,4-dioxo-6-phenyl-1,3-diazaspiro [4.5]decan-3-yl)acetamide]
EC50 [1]: > 10 µM
EC50 ([2]; Hepatitis C virus, GT4A): > 10 µM
EC50 [3]: > 10 µM
EC50 [4]: 4.62 ± 0.39 µM
SI (CC50 for L6 cells / EC50 for T. brucei) [5]: 150
EC50 [6]: 1.46 ± 0.06 µM
EC90 [6]: 1.75 ± 0.02 µM
EC50 [7]: > 30 µM
CC50 at 6 days [8]: 217 ± 6 µM
CC50 at 72 h [11]: > 10 µM

CCN1C(=O)N(CC(=O)NO)C(=O)C12CCC(c1ccccc1)CC2 (stereo not drawn) [Compound 40, N-Hydroxy-2-(1-ethyl-2,4-dioxo-8-phenyl-1,3-diazaspiro [4.5]decan-3-yl)acetamide]
EC50 [1]: 0.52 ± 0.08 µM
EC50 ([2]; Hepatitis C virus, GT4A): 0.31 ± 0.13 µM
EC50 [3]: 6.67 ± 0.05 µM
EC50 [4]: 0.68 ± 0.03 µM
increase in activity against T. brucei relative to parent compound [5]: 30 fold
SI (CC50 for L6 cells / EC50 for T. brucei) [5]: 1870
SI (CC50 for L6 cells / EC50 for T. cruzi) [12]: 48
EC50 [6]: 0.029 ± 0.001 µM
EC90 [6]: 0.055 ± 0.003 µM
EC50 [7]: 1.12 ± 0.03 µM
EC90 [7]: 1.86 ± 0.04 µM
CC50 at 6 days [8]: 54.3 ± 5.9 µM
CC50 at 72 h [11]: 10.6 ± 0.12 µM

O=C(CN1C(=O)N(Cc2ccccc2)C2(CCC(c3ccccc3)CC2)C1=O)NO (stereo not drawn) [Compound 41, N-Hydroxy-2-(1-benzyl-2,4-dioxo-8-phenyl-1,3-diazaspiro [4.5]decan-3-yl)acetamide]
EC50 [1]: > 10 µM
EC50 ([2]; Hepatitis C virus, GT4A): > 10 µM
EC50 [3]: > 10 µM
EC50 [4]: > 10 µM
increase in activity against T. brucei relative to parent compound [5]: 100 fold
SI (CC50 for L6 cells / EC50 for T. brucei) [5]: 440
SI (CC50 for L6 cells / EC50 for T. cruzi) [12]: 12
EC50 [6]: 0.009 ± 0.001 µM
EC90 [6]: 0.011 ± 0.001 µM
EC50 [7]: 0.34 ± 0.02 µM
EC90 [7]: 0.74 ± 0.05 µM
CC50 at 6 days [8]: 3.98 ± 0.32 µM
CC50 at 72 h [11]: > 10 µM
